Test results reported in patent US7049311B1, “Pyrrolbenzodiazepines” (Spirogen Limited, priority 1998, dated 2006).
Read-outs that look alike come from different tables or passages of the source.

How the values were obtained:
calf thymus DNA = test: DNA helix melting temperature assay; type: binding; conditions: [PBD]:[DNA] ratio of 1:5, calf thymus DNA
Procedure: The first assay, which is described in G. B. Jones, et al., Anti-Cancer Drug Des., 1990, 5, 249, which is incorporated herein by reference, determines the effect of the test compound on the helix melting temperature of DNA. This assay is designed to give an indication of the strength and extent of cross-linking of the DNA strands by the test compound (i.e. a measure of the stabilisation of the DNA upon ligand binding).
The melting temperature was determined for a 1:5 molar ratio of [ligand] [DNA], where the calf thymus DNA concentration is […] in aqueous sodium phosphate buffer (10 mM sodium phosphate+1 mM EDTA, pH 7.00±0.01). For calf thymus DNA at pH 7.00±0.01, the melting temperature is 67.83±0.06° C. (mean value from 30 separate determinations).

A2780cisR = test: Ovarian carcinoma cytotoxicity assay; type: cell-based, human
Procedure: (§1) Compounds of the invention (and Anthramycin as a comparison) were evaluated for their cytotoxic activity in ovarian cell lines by Dr Lloyd R. Kelland's group at The Institute of Cancer Research, Sutton, UK. The five cell lines investigated were SKOV-3, A2780/A2780cisR and CH1/CH1cisR (cis R denotes that the cell line is resistant to cisplatin).
(§2) Single viable cells were seeded in growth medium (160 μL) in […] microtitre plates and allowed to attach overnight. […] After 96 hours, the medium was removed and the remaining cells fixed by exposure to 10% trichloroacetic acid on ice for 30 minutes. The wells were then washed 3-4 times with tap water, air dried overnight and treated with 100 μL of sulphorhodamine B (0.4%) dissolved in 1% acetic acid. Staining was allowed to continue for 10-15 minutes, then the wells were washed 3-4 times with 1% acetic acid, air dried and then added to Tris base (100 μL of 10 mM). Plates were then shaken and absorbance readings at 540 nm were determined using a plate reader. By using the Quattro-Pro software package, the IC50 values were calculated from plots of concentration versus percentage absorbance (compared with 8 untreated wells).

A2780 = test: Ovarian carcinoma cytotoxicity assay; type: cell-based, human
Procedure: as §1, §2

CH1cisR = test: Ovarian carcinoma cytotoxicity assay; type: cell-based
Procedure: as §1, §2

CH1 = test: Ovarian carcinoma cytotoxicity assay; type: cell-based
Procedure: as §1, §2

SKOV-3 = test: Ovarian carcinoma cytotoxicity assay; type: cell-based
Procedure: as §1, §2

NCI-H522 = test: NCI in vitro cytotoxicity screen; type: cell-based; conditions: Homo sapiens, NCI-H522, 48 h, read-out: LC50
Procedure: (§3) The National Cancer Institute (NCI), Bethesda, Md., USA has available an in vitro cytotoxicity screen which consists of approximately 60 human tumour cell lines against which compounds are tested at a minimum of five concentrations each differing 10-fold. A 48 hour continuous exposure protocol is used, where cell viability or growth is estimated with an SRB protein assay.
(§4) The test compounds were evaluated against approximately 60 human tumour cell lines. The NCI screening procedures were described in detail by Monks and co-workers (Monks, A et al., Journal of the National Cancer Institute, 1991, 83, 757). Briefly, cell suspensions were diluted according to the particular cell type and the expected target cell density (5000-40,000 cells per well based on cell growth characteristics), and added by pipette (100 μL) into 96-well microtitre plates. The cells were allowed a preincubation period of 24 hours at 37° C. for stabilisation. Dilutions at twice the intended test concentration were added at time zero in 100 μL aliquots to the wells. The test compounds were evaluated at five 10-fold dilutions (10^−4, 10^−5, 10^−6, 10^−7 and 10^−[…]). The test compounds were incubated for 48 hours in 5% CO2 atmosphere and 100% humidity. The cells were then assayed using the sulphorhodamine B assay. A plate reader was used to read the optical densities and a microcomputer processed the readings into LC50 values, which is the dosage required to kill half of the cells.

RXF 393 = test: NCI in vitro cytotoxicity screen; type: cell-based; conditions: Homo sapiens, RXF 393, 48 h, read-out: LC50
Procedure: as §3, §4

SK-MEL-2 = test: NCI in vitro cytotoxicity screen; type: cell-based; conditions: Homo sapiens, SK-MEL-2, 48 h, read-out: LC50
Procedure: as §3, §4

[1] = Homo sapiens, A2780cisR, 96 h, read-out: IC50 A2780cisR, cisplatin-resistant, 96 hours, sulphorhodamine B
[2] = Homo sapiens, A2780, 96 h, read-out: IC50 A2780, 96 hours, sulphorhodamine B
[3] = Homo sapiens, CH1cisR, 96 h, read-out: IC50 CH1cisR, cisplatin-resistant, 96 hours, sulphorhodamine B
[4] = Homo sapiens, CH1, 96 h, read-out: IC50 CH1, 96 hours, sulphorhodamine B
[5] = Homo sapiens, SK-OV-3, 96 h, read-out: IC50 Skov3, 96 hours, sulphorhodamine B

SMILES | IC50 (A2780cisR; [1]) [nM] | IC50 (A2780; [2]) [nM] | IC50 (CH1cisR; [3]) [nM] | IC50 (CH1; [4]) [nM] | IC50 (SKOV-3; [5]) [nM] | further results
C/C=C1\C[C@H]2C=Nc3cc(O)c(OC)cc3C(=O)N2C1 [Tomamycin, tomaymycin] |  |  |  |  |  | Induced ΔTa after incubation at 37° C. for 0 h (calf thymus DNA; pH 7.00, 0 h): 0.97 °C; Induced ΔTa after incubation at 37° C. for 4 h (calf thymus DNA; pH 7.00, 4 h): 2.38 °C; Induced ΔTa after incubation at 37° C. for 18 h (calf thymus DNA; pH 7.00, 18 h): 2.56 °C
Cc1ccc2c(c1O)NC(O)C1CC(/C=C/C(N)=O)=CN1C2=O (centres unmarked) [Anthramycin, anthramycin, reference compound] | 160 | 155 | 50 | 62 | 160 | 
COc1cc2c(c(OC)c1OCCCOc1c(OC)cc3c(c1OC)N=C[C@@H]1CCCN1C3=O)N=C[C@@H]1CCCN1C2=O [UP2020 (90)] | 7200 | 10000 | 2800 | 1700 | 1600 | 
COC(=O)CC1=CN2C(=O)c3cc(OC)c(OCCCOc4cc5c(cc4OC)C(=O)N4C=C(CC(=O)OC)C[C@H]4C=N5)cc3N=C[C@@H]2C1 [UP2053 (56)] | 58 | 5.4 | 11 | 11.5 | 100 | 
COc1cc2c(cc1OC)C(=O)N1CCC[C@H]1C=N2 [UP2025 (106), (11aS)-7,8-dimethoxy-1,2,3,11a-tetrahydro-5H-pyrrolo [2,1-c][1,4]benzodiazepin-5-one] |  | 64 | 110 | 82 | 1700 | 
COc1cc2c(cc1OCCCNC(=O)OCC1c3ccccc3-c3ccccc31)N=C[C@@H]1CCCN1C2=O [UP2088 (205), (11aS) 8-(N-9-fluorenylmethoxycarbonyl)aminopropyloxy-7-methoxy-1,2,3,11a-tetrahydro-5H-pyrrolo[2,1-c][1,4]benzodiazepin-5-one] |  |  |  |  |  | IC50 (A2780cisR; cisplatin-resistant, 96 hours, sulphorhodamine B, read-out: IC50 A2780cisR): 8500 nM; IC50 (A2780; 96 hours, sulphorhodamine B, read-out: IC50 A2780): 11000 nM; IC50 (CH1cisR; cisplatin-resistant, 96 hours, sulphorhodamine B, read-out: IC50 CH1cisR): 16000 nM; IC50 (CH1; 96 hours, sulphorhodamine B, read-out: IC50 CH1): 12000 nM; IC50 (SKOV-3; 96 hours, sulphorhodamine B, read-out: IC50 Skov3): 14000 nM
COc1cc2c(c(OC)c1OC)N=C[C@@H]1CCCN1C2=O [UP2086 (120), 7,8,9-Trimethoxy-1,2,3,11a-tetrahydro-5H-pyrrolo[2,1-c][1,4]benzodiazepin-5-one] | 450 | 840 | 2200 | 1600 | 2500 | 
COc1cc2c(cc1OCCC(=O)N1CCCCC1)N=C[C@@H]1CCCN1C2=O [UP2006 (163)] | 14500 | 3200 | 7900 | 4900 | 23500 | 
COc1ccc(C2=CN3C(=O)c4cc(OC)c(OC)cc4N=C[C@@H]3C2)cc1 [UP2092 (179), (11aS)-1,11a-dihydro-7,8-dimethoxy-2-(4-methoxyphenyl)-5H-pyrrolo[2,1-c][1,4]benzodiazepin-5-one] | 7 | 4 | 8.2 | 1.6 | 9.8 | 
COc1cc2c(cc1OCCC(=O)N1CCc3ccccc31)N=C[C@@H]1CCCN1C2=O [UP2007 (165), 1, (2,3-dihydro-1H-indolyl)-3-(7-methoxy-5-oxy(11as)-2,3,5,11a-tetrahydro-1H-benzo[e]pyrrolo[1,2-a][1,4]diazepin-8-yloxy)-1-propanone] |  |  |  |  |  | IC50 (A2780cisR; read-out: IC50 A2780cisR, cisplatin-resistant, 96 hours, sulphorhodamine B): 4900 nM; IC50 (A2780; read-out: IC50 A2780, 96 hours, sulphorhodamine B): 1550 nM; IC50 (CH1cisR; read-out: IC50 CH1cisR, cisplatin-resistant, 96 hours, sulphorhodamine B): 3000 nM; IC50 (CH1; read-out: IC50 CH1, 96 hours, sulphorhodamine B): 1500 nM; IC50 (SKOV-3; read-out: IC50 Skov3, 96 hours, sulphorhodamine B): 5800 nM
C/C=C1\C[C@H]2C=Nc3cc(OCc4ccccc4)c(OC)cc3C(=O)N2C1 [UP2100 (207)] | 66 | < 50 | < 50 | < 50 | 81 | 
C=CC1=CN2C(=O)c3cc(OC)c(OC)cc3N=C[C@@H]2C1 [UP2089 (177), (11aS)-1,11a-dihydro-7,8-dimethoxy-2-ethenyl-5H-pyrrolo[2,1-c][1,4]benzodiazepin-5-one] | 4.2 | 2.2 | 2.3 | < 2.5 | 5.4 | 
COc1cccc2c1N=C[C@@H]1CCCN1C2=O [UP2024 (101), (11aS)-9-methoxy-1,2,3,11a-tetrahydro-5H-pyrrolo[2,1-c][1,4]benzodiazepin-5-one] | 1800 | 1400 | 1250 | 1450 | 2350 | 
COc1cc2c(cc1OCc1ccccc1)N=C[C@@H]1CC(CC#N)=CN1C2=O [UP2074 (10)] | 430 | 155 | 270 | 105 | 520 | 
COc1ccc(-c2ccc3c(c2)C(=O)N2CCC[C@H]2C=N3)cc1 [UP2027 (138), (11aS)-7-(4′-Methoxyphenyl)-1,2,3,11a-tetrahydro-5H-pyrrolo[2,1-c]-[1,4]benzodiazepin-5-one] |  |  |  |  |  | CC50 (NCI-H522): 8000 nM; CC50 (RXF 393): 6600 nM; CC50 (SK-MEL-2): 9500 nM; IC50 (A2780cisR; Homo sapiens, A2780cisR, cisplatin-resistant, 96 hours, sulphorhodamine B, read-out: IC50 A2780cisR): 1550 nM; IC50 (A2780; Homo sapiens, A2780, 96 hours, sulphorhodamine B, read-out: IC50 A2780): 560 nM; IC50 (CH1cisR; Homo sapiens, CH1cisR, cisplatin-resistant, 96 hours, sulphorhodamine B, read-out: IC50 CH1cisR): 1150 nM; IC50 (CH1; Homo sapiens, CH1, 96 hours, sulphorhodamine B, read-out: IC50 CH1): 1350 nM; IC50 (SKOV-3; Homo sapiens, SK-OV-3, 96 hours, sulphorhodamine B, read-out: IC50 Skov3): 1700 nM
COc1cc2c(c(OC)c1O)N=CC1CC(=O)CN1C2 (centres unmarked) [UP2021 (130), 7,9-dimethoxy-8-Hydroxy-1,2,3,11a-tetrahydropyrrolo[2,1-c][1,4]benzodiazepin-2-one] | > 100000 | > 100000 | 47000 | 51000 | > 100000 | 
COc1cc2c(c(OC)c1OCc1ccccc1)N=C[C@@H]1CCCN1C2=O [UP2022 (143), 8-Benzyloxy-7,9-dimethoxy-1,2,3,11a-tetrahydropyrrolo[2,1-c][1,4]benzodiazepin-5-one] | 16500 |  | 11000 | 14000 | 33000 | 
COc1cc2c(cc1OC)C(=O)N1C=C(c3ccccc3)C[C@H]1C=N2 [UP2095 (181), (11aS)-1,11a-dihydro-7,8-dimethoxy-2-phenyl-5H-pyrrolo[2,1-c][1,4]benzodiazepin-5-one] | < 50 | < 50 | < 50 | < 50 | < 50 | 
